Where a name gives a salt, the structure may show the parent alone. Where only a bound is given, the exact number is not on record here.

catalytic domain of human PARP14, sequence (Q460N5 1611-1801): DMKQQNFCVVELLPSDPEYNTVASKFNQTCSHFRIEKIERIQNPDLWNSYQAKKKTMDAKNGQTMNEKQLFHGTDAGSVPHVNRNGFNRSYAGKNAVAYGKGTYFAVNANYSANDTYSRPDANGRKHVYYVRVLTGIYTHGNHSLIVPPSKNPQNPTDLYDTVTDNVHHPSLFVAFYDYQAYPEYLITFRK

In this assay the target is catalytic domain of human PARP14 (Homo sapiens (Human), UniProt Q460N5). Nature of the assay: Enzymatic assay for inhibition of PARP14 (DELFIA, auto-modification with biotin-NAD). Type of assay: biochemical. The note with it: auto-modification of PARP14 by biotin-NAD, 50 nM PARP14, 3 μM biotin-NAD. Put shortly:
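DELFIA auto-modification read-out: europium-streptavidin bound to biotin-NAD incorporated onto nickel-captured His-TEV PARP14 catalytic domain. Compound preincubated 30 min, then 50 nM enzyme with 3 μM biotin-NAD reacted 3 h, all at 25 °C, pH 8, then NAD quench. Percent inhibition normalized to rucaparib/DMSO wells, fitted (4- or 3-parameter) for IC50.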
Take `O=c1[nH]c(CS[C@H]2CC[C@H](O)CC2)nc2cc(OCC3CCOC3)cc(F)c12` (stereo partly drawn) [Example 324, 5-Fluoro-2-((((trans)-4-hydroxycyclohexyl)thio)methyl)-7-((tetrahydrofuran-3-yl)methoxy)quinazolin-4(3H)-one]: the IC50 – broadly, the concentration needed to halve the response being measured – was less than 1 µM.

The compound `Cc1cccc2c(=O)[nH]c(CSC3COC3)nc12` [Example 39, 8-Methyl-2-((oxetan-3-ylthio)methyl)quinazolin-4(3H)-one] returned an IC50 greater than 10 µM.

In turn, `O=c1[nH]c(CSC2CCOCC2)nc2cc(Nc3cncnc3)ccc12` [Example 87, 7-(Pyrimidin-5-ylamino)-2-(((tetrahydro-2H-pyran-4-yl)thio)methyl)quinazolin-4(3H)-one] displayed an IC50 of 1 to 10 µM.

The compound `O=c1[nH]c(CSC2CCN(C3COC3)CC2)nc2cc(NCC3CC3)cc(F)c12` [Example 274, 7-((Cyclopropylmethyl)amino)-5-fluoro-2-(((1-(oxetan-3-yl)piperidin-4-yl)thio)methyl)quinazolin-4(3H)-one] yielded an IC50 of less than 1 µM.

`O=c1[nH]c(CSC2CCOCC2)nc2cc(OCC3CCOCC3)c(F)c(F)c12` [Example 406] came in with a 50% inhibitory concentration (IC50) of less than 1 µM.

For `Cc1cccc2c(=O)[nH]c(CSCC3CCOCC3)nc12` [Example 12, 8-Methyl-2-((((tetrahydro-2H-pyran-4-yl)methyl)thio)methyl)quinazolin-4(3H)-one], the IC50 fell in the range of 1 to 10 µM.

`CC(=O)N1CCC(COc2cc(F)c3c(=O)[nH]c(CS[C@H]4CC[C@](C)(O)CC4)nc3c2)CC1` [Example 409] returned an IC50 of less than 1 µM.

Compound `O=c1[nH]c(CSC2CCN(C3COC3)CC2)nc2cc(NC3CCCC3)cc(F)c12` [Example 255, 7-(Cyclopentylamino)-5-fluoro-2-(((1-(oxetan-3-yl)piperidin-4-yl)thio)methyl)quinazolin-4(3H)-one] registered an IC50 of less than 1 µM.

In turn, `CC(=O)N1CCC(SCc2nc3c(C)cccc3c(=O)[nH]2)CC1` [Example 17, 2-(((1-Acetylpiperidin-4-yl)thio)methyl)-8-methylquinazolin-4(3H)-one] showed a 50% inhibitory concentration (IC50) of 1 to 10 µM.

`O=c1[nH]c(CS[C@H]2CCN[C@@H](C(F)(F)F)C2)nc2cc(NC3CCCC3)cc(F)c12` (relative stereo) [Example 228, 7-(Cyclopentylamino)-5-fluoro-2-(((cis-2-(trifluoromethyl)piperidin-4-yl)thio)methyl)quinazolin-4(3H)-one hydrochloride] displayed an IC50 of 1 to 10 µM.

`O=c1[nH]c(CSC2CCOCC2)nc2cc(NCC3CCOCC3)c(F)c(F)c12` [Example 338] registered a half-maximal inhibitory concentration (IC50) of less than 1 µM.

`O=c1[nH]c(CS[C@H]2CC[C@H](O)CC2)nc2cc(N[C@H]3CCC[C@@H]3F)cc(F)c12` (relative stereo) [Example 340] had an IC50 of less than 1 µM.

`CS(=O)(=O)N1CCC[C@@H](Nc2ccc3c(=O)[nH]c(CS[C@H]4CC[C@H](O)CC4)nc3c2)C1` [Example 267, 2-(((Trans-4-hydroxycyclohexyl)thio)methyl)-7-(((R)-1-(methylsulfonyl)piperidin-3-yl)amino)quinazolin-4(3H)-one] displayed an IC50 of less than 1 µM.

Compound `O=c1[nH]c(CSC2CCOCC2)nc2cc(Nc3ccon3)ccc12` [Example 94, 7-(Isoxazol-3-ylamino)-2-(((tetrahydro-2H-pyran-4-yl)thio)methyl)quinazolin-4(3H)-one] yielded a half-maximal inhibitory concentration (IC50) of less than 1 µM.

The compound `O=c1[nH]c(CSC2CCOCC2)nc2cc(NC3CCCNC3)ccc12` (stereo not shown) [Example 127, 7-(3-Piperidylamino)-2-(tetrahydropyran-4-ylsulfanylmethyl)-3H-quinazolin-4-one] registered a concentration for half-maximal inhibition (IC50) greater than 10 µM.

`CO[C@H]1CC[C@H](SCc2nc3c(C)cccc3c(=O)[nH]2)CC1` [Example 26, 2-((((trans)-4-Methoxycyclohexyl)thio)methyl)-8-methylquinazolin-4(3H)-one] yielded an IC50 of 1 to 10 µM.

For the compound `NC(=O)[C@H]1CC[C@H](SCc2nc3cc(NC4CCCC4)cc(F)c3c(=O)[nH]2)CC1` [Example 218, trans-4-(((7-(Cyclopentylamino)-5-fluoro-4-oxo-3,4-dihydroquinazolin-2-yl)methyl)thio)cyclohexane-1-carboxamide], the IC50 is less than 1 µM.

For the compound `O=c1[nH]c(CSC2CCOCC2)nc2cc(OCC3CCOCC3)cc(F)c12` [Example 236, 5-Fluoro-7-((tetrahydro-2H-pyran-4-yl)methoxy)-2-(((tetrahydro-2H-pyran-4-yl)thio)methyl)quinazolin-4(3H)-one], the 50% inhibitory concentration (IC50) is less than 1 µM.

With `CNc1ccc2c(=O)[nH]c(CSC3CCOCC3)nc2c1` [Example 110, 7-(Methylamino)-2-(((tetrahydro-2H-pyran-4-yl)thio)methyl)quinazolin-4(3H)-one], the IC50 lay in the range of 1 to 10 µM.

`O=c1[nH]c(CSC2CCOCC2)nc2cc(NC3CCCC3)cc(CF)c12` [Example 225, 7-(cyclopentylamino)-5-(fluoromethyl)-2-(((tetrahydro-2H-pyran-4-yl)thio)methyl)quinazolin-4(3H)-one] registered an IC50 greater than 10 µM.

Regarding `Cc1cccc2c(=O)[nH]c(CSC3CCN(Cc4ccc(N(C)C)cc4)CC3)nc12` [Example 140, 2-(((1-(4-(Dimethylamino)benzyl)piperidin-4-yl)thio)methyl)-8-methylquinazolin-4(3H)-one trifluoroacetate], the IC50 is less than 1 µM.

In turn, `O=c1[nH]c(CS[C@H]2CCNC[C@H](F)C2)nc2cc(NC3CCCC3)cc(F)c12` (relative stereo) [Example 240, 7-(Cyclopentylamino)-5-fluoro-2-(((trans-6-fluoroazepan-4-yl)thio)methyl)quinazolin-4(3H)-one] came in with an IC50 of less than 1 µM.

As for `Cc1cccc2c(=O)[nH]c(CSC3CCCN(C)C3)nc12` (stereo not shown) [Example 32, 8-Methyl-2-(((1-methylpiperidin-3-yl)thio)methyl)quinazolin-4(3H)-one], the 50% inhibitory concentration (IC50) was in the range of 1 to 10 µM.

With `O=c1[nH]c(CSC2CCOCC2)nc2ncccc12` [Example 43, 2-(((Tetrahydro-2H-pyran-4-yl)thio)methyl)pyrido[2,3-d]pyrimidin-4(3H)-one], the IC50 was greater than 10 µM.

Compound `Cc1cccc2c(=O)[nH]c(CSC3CCN(CCO)CC3)nc12` [Example 162, 2-(((1-(2-Hydroxyethyl)piperidin-4-yl)thio)methyl)-8-methylquinazolin-4(3H)-one] displayed a 50% inhibitory concentration (IC50) of less than 1 µM.

For the compound `CN(C)C(=O)N1CCC(SCc2nc3cc(NC4CCCC4)cc(F)c3c(=O)[nH]2)CC1` [Example 220, 4-(((7-(Cyclopentylamino)-5-fluoro-4-oxo-3,4-dihydroquinazolin-2-yl)methyl)thio)-N,N-dimethylpiperidine-1-carboxamide], the IC50 is less than 1 µM.

For `Cc1cc(Cl)cc2c(=O)[nH]c(CSC3CCOCC3)nc12` [Example 44, 6-Chloro-8-methyl-2-(((tetrahydro-2H-pyran-4-yl)thio)methyl)quinazolin-4(3H)-one], the IC50 was less than 1 µM.

In turn, `CC(=O)N1CCC(COc2cc(F)c3c(=O)[nH]c(CS[C@H]4CC[C@H](O)CC4)nc3c2)CC1` [Example 396] displayed a half-maximal inhibitory concentration (IC50) of less than 1 µM.

Compound `Cc1cccc2c(=O)[nH]c(CSC3CCCC(N)CC3)nc12` (stereo not shown) [Example 53, 2-(((4-Aminocycloheptyl)thio)methyl)-8-methylquinazolin-4(3H)-one Trifluoroacetate] gave an IC50 of less than 1 µM.

In the case of `Cc1cccc2c(=O)[nH]c(CSC3CCC(CN)C3)nc12` (stereo not shown) [Example 191, 2-(((3-(aminomethyl)cyclopentyl)thio)methyl)-8-methylquinazolin-4(3H)-one], the concentration for half-maximal inhibition (IC50) was in the range of 1 to 10 µM.

For the compound `Cc1ccc(C(F)(F)F)c2c(=O)[nH]c(CSC3CCOCC3)nc12` [Example 35, 8-Methyl-2-(((tetrahydro-2H-pyran-4-yl)thio)methyl)-5-(trifluoromethyl)quinazolin-4(3H)-one], the IC50 was less than 1 µM.

For the compound `O=c1[nH]c(CSC2CCOCC2)nc2cc(OCC3CC3(F)F)cc(F)c12` (stereo not shown) [Example 315, 7-((2,2-Difluorocyclopropyl)methoxy)-5-fluoro-2-(((tetrahydro-2H-pyran-4-yl)thio)methyl)quinazolin-4(3H)-one], the IC50 is less than 1 µM.

Take `CC(Oc1cc(F)c2c(=O)[nH]c(CSC3CCOCC3)nc2c1)C1CCCC1` (stereo not shown) [Example 394]: the half-inhibitory concentration (IC50) is less than 1 µM.

In turn, `CS(=O)(=O)N1CCC[C@@H](Nc2ccc3c(=O)[nH]c(CSC4CCOCC4)nc3c2)C1` [Example 193, (R)-7-((1-(methylsulfonyl)piperidin-3-yl)amino)-2-(((tetrahydro-2H-pyran-4-yl)thio)methyl)quinazolin-4(3H)-one] gave an IC50 of less than 1 µM.

Take `O=c1[nH]c(CS[C@@H]2CCNCC2F)nc2cc(OCC3CC3)cc(F)c12` (stereo in doubt) [Example 295, 7-(Cyclopropylmethoxy)-5-fluoro-2-(((cis-3-fluoropiperidin-4-yl)thio)methyl)quinazolin-4(3H)-one hydrochloride]: the half-maximal inhibitory concentration (IC50) was less than 1 µM.

`CC(=O)N1CCC(CNc2cc3nc(CS[C@H]4CC[C@H](O)CC4)[nH]c(=O)c3c(F)c2F)CC1` [Example 419] had a half-inhibitory concentration (IC50) of less than 1 µM.

In turn, `O=c1[nH]c(CS[C@H]2CC[C@H](O)CC2)nc2cc(OCC3CCOCC3)cc(F)c12` [Example 342] showed a half-maximal inhibitory concentration (IC50) of less than 1 µM.

Take `CN1CCC(Nc2ccc3c(=O)[nH]c(CSC4CCOCC4)nc3c2)CC1` [Example 113, 7-((1-Methylpiperidin-4-yl)amino)-2-(((tetrahydro-2H-pyran-4-yl)thio)methyl)quinazolin-4(3H)-one]: the concentration for half-maximal inhibition (IC50) is greater than 10 µM.

As to `O=c1[nH]c(CSC2CCOCC2)nc2cc(NC3CCN(Cc4ccccc4)CC3)ccc12` [Example 128, 7-((1-Benzylpiperidin-4-yl)amino)-2-(((tetrahydro-2H-pyran-4-yl)thio)methyl) quinazolin-4(3H)-one], the half-inhibitory concentration (IC50) lay within 1 to 10 µM.

As for `O=c1[nH]c(CS[C@H]2CC[C@H](O)CC2)nc2cc(F)ccc12` [Example 46, 7-Fluoro-2-((((trans)-4-hydroxycyclohexyl)thio)methyl)quinazolin-4(3H)-one], the IC50 lay within 1 to 10 µM.

The values above are taken from patent US10562891B2, “Quinazolinones as PARP14 inhibitors” (Ribon Therapeutics Inc., priority 2017, dated 2020).
